One data set relates to ABCR −/− mice. Particulars: mice with genetically engineered ABCR −/− gene defect; Radu et al 2003, US 2003/032,078; cited from earlier work.
The subject of the next data set is RPE65. Particulars: Gollapalli et al 2004; cited from earlier work.
For data set [1] the following is noted: people taking isotretinoin; decreased acuity under moderately dark conditions; cited from earlier work.
The test system of data set [2] is short chain dehydrogenase enzyme that converts 11-cis-retinol into 11-cis-retinal. The note with it: Radu et al 2003; cited from earlier work.
Data set [3] relates to rabbit or bovine RPE cells. The note with it: added to RPE cell cultures; high oxygen concentrations or intense blue light; Sundelin 2001, Shaban 2002, Nilsson 2003; cited from earlier work.
Data set [4] is described as follows: Laser-verteporfin photodynamic therapy in a patient with wet macular degeneration who was taking zeaxanthin. Format: in vivo, human. Particulars: one patient, zeaxanthin 20 milligrams per day for several months before treatment. The text has this: Additional insights arose from a fortuitous event involving an elderly acquaintance of the Applicant, who was taking zeaxanthin and who decided to have a treatment known as “photodynamic therapy”, which uses a laser to convert a drug called verteporfin into a toxin that will kill and seal newly-growing blood vessels in the retina. The patient's doctor, who is regarded as one of the world's foremost experts in treating macular degeneration, advised the patient to stop taking zeaxanthin before the laser treatment, because (in the physician's opinion) it likely would not help, and it might interfere with the laser treatment. That advice was entirely consistent with the packaging information that accompanies verteporfin, which states that carotenoids should be avoided before treatment, since they may interfere with the treatment.
That discovery and invention arose from an event involving a personal acquaintance of the Inventor. That person was suffering from the “wet” or “exudative” form of macular degeneration, which involves abnormal and aggressive blood vessel growth in and behind the macula. They decided to have a treatment known as “photodynamic therapy”, which uses a laser that is shone directly into the eye of a patient who has been anesthetized. […]

For data set [5] the following is noted: high dosage, people with risk factors such as smoking; cited from earlier work.

RPE65, sequence (Q16518 whole entry, species assumed): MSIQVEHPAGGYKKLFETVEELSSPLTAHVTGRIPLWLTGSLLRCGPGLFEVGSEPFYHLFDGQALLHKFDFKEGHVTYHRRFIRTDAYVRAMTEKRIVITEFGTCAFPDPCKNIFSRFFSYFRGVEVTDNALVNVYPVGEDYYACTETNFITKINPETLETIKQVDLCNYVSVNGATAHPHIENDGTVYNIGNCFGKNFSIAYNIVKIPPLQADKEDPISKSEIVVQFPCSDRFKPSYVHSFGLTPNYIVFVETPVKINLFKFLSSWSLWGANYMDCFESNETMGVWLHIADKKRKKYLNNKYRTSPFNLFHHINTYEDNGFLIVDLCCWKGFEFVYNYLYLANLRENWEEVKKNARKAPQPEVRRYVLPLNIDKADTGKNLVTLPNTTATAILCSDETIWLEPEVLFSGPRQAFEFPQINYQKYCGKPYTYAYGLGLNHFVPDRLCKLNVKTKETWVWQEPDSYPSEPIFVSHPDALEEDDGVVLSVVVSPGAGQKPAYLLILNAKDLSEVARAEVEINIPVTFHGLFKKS

`CC1=C(/C=C/C(C)=C/C=C/C(C)=C\C(=O)O)C(C)(C)CCC1` [isotretinoin, 13-cis-retinoic acid]: the “accumulation of lipofuscin in the retinas” value in the data set on ABCR −/− mice was “can help slow and reduce the accumulation of lipofuscin”. For the same compound, the “inhibition of RPE65” value in the data set with RPE65 is reported as “inhibit at least two different enzymes involved in vision”. Also, in data set [1], the vision side effect result was “night blindness”. Further, the “inhibition of short chain dehydrogenase” value in data set [2] is “inhibit at least two different enzymes involved in vision”.
With `CC(C)=CCC/C(C)=C/C=C/C(C)=C/C=C/C(C)=C/C=C/C=C(C)/C=C/C=C(C)/C=C/C=C(\C)CCC=C(C)C` [lycopene], in data set [3], the cell toxicity result is “helped suppress cell toxicity”; the formation of lipofuscin result is “helped suppress cell toxicity and the formation of lipofuscin”.
`CC1=C(/C=C/C(C)=C/C=C/C(C)=C/C=C/C=C(C)/C=C/C=C(C)/C=C/C2=C(C)C[C@@H](O)CC2(C)C)C(C)(C)C[C@H](O)C1` [zeaxanthin, 3R,3′R-zeaxanthin]: in data set [3], the cell toxicity result is “helped suppress cell toxicity”; the formation of lipofuscin entry is “helped suppress cell toxicity and the formation of lipofuscin”. In data set [4], the “results of the laser-verteporfin treatment” value is “much better than anyone had expected”.
Consider `CC1=C(/C=C/C(C)=C/C=C/C(C)=C/C=C/C=C(C)/C=C/C=C(C)/C=C/C2=C(C)CCCC2(C)C)C(C)(C)CCC1` [beta-carotene], for which the “rates and risks of lung cancer” value in data set [5] is “actually increases the rates and risks of lung cancer”.
For the compound `O=C1O[C@H]([C@@H](O)CO)C(O)=C1O` [Vitamin C], in data set [3], the formation of lipofuscin result was “helped suppress cell toxicity and the formation of lipofuscin”.
Turning to `CC1=C[C@H](O)CC(C)(C)[C@H]1/C=C/C(C)=C/C=C/C(C)=C/C=C/C=C(C)/C=C/C=C(C)/C=C/C1=C(C)C[C@@H](O)CC1(C)C` [lutein], in data set [3], the cell toxicity entry is on record as “helped suppress cell toxicity”; the formation of lipofuscin result was “helped suppress cell toxicity and the formation of lipofuscin”.
On to Vitamin E, for which, in data set [3], the cell toxicity entry is on record as “helped suppress cell toxicity”; the formation of lipofuscin entry was “helped suppress cell toxicity and the formation of lipofuscin”.

Source of the values: patent publication US20060089411A1, “Treatment of Stargardt's disease and other lipofuscin disorders with combined retinaldehyde inhibitor and zeaxanthin” (priority 2004, published 2006).
